Read-outs that look alike come from different tables or passages of the source.
Columns and labels:
[1] = tested on: diabetic Yucatan minipigs; assay: Glucose lowering after s.c. bolus in type 1 diabetic Yucatan minipigs (PD); type: in vivo, minipig; settings: individual animal
Description: Data is presented as mean ± SEM, n = 6 animals per dose group. […] Source data are provided as a Source Data file.
IRPAs were characterized in a Type 1 diabetic Yucatan minipig model. Briefly, male Yucatan minipigs, from Sinclair, were rendered Type 1 diabetic by Alloxan injections following a proprietary protocol developed by Sinclair Research Center (Auxvasse, MO). […] Minipigs used in these studies ranged from 10 months to 3 years old, had plasma glucose levels of approximately 300–400 mg/dL and were instrumented with two Jugular vein vascular access ports (VAP).
IRPAs were administered to diabetic minipigs by subcutaneous injection. […] After dosing, sampling continued for 18 h.

SAOS2/B10 cells = assay: Cellular proliferation, EdU incorporation (Click-it EdU); type: cell-based
Description: 3. […]
Ethynyl-2′-deoxyuridine; ThermoFisher Scientific) assay. […]

Substance: Tresiba: insulin Degludec from Novo Nordisk, a lipidated insulin
- ΔGlucose ([1]; 2 h post s.c. dose, replicate 1): -38 mg/dL
- ΔGlucose ([1]; 2 h post s.c. dose, replicate 2): -21 mg/dL
- ΔGlucose ([1]; 2 h post s.c. dose, replicate 3): 5 mg/dL
- ΔGlucose ([1]; 2 h post s.c. dose, replicate 4): 79 mg/dL
- ΔGlucose ([1]; 2 h post s.c. dose, replicate 5): 69 mg/dL
- ΔGlucose ([1]; 2 h post s.c. dose, replicate 6): -28 mg/dL
- ΔGlucose ([1]; 2 h post s.c. dose, replicate 7): 35 mg/dL
- ΔGlucose ([1]; 2 h post s.c. dose, replicate 8): -20 mg/dL
- ΔGlucose ([1]; 2 h post s.c. dose, replicate 9): 40 mg/dL
- ΔGlucose ([1]; 2 h post s.c. dose, replicate 10): 8 mg/dL
- ΔGlucose ([1]; 2 h post s.c. dose, replicate 11): -118 mg/dL
- ΔGlucose ([1]; 2 h post s.c. dose, replicate 12): 93 mg/dL
- ΔGlucose ([1]; 2 h post s.c. dose, replicate 13): -13 mg/dL
- ΔGlucose ([1]; 2 h post s.c. dose, replicate 14): 18 mg/dL
- ΔGlucose ([1]; 2 h post s.c. dose, replicate 15): -36 mg/dL
- ΔGlucose ([1]; 2 h post s.c. dose, replicate 16): 58 mg/dL
- ΔGlucose ([1]; 2 h post s.c. dose, replicate 17): -126 mg/dL
- ΔGlucose ([1]; 2 h post s.c. dose, replicate 18): -12 mg/dL
- ΔGlucose ([1]; 2 h post s.c. dose, replicate 19): -60 mg/dL
- ΔGlucose ([1]; 3 h post s.c. dose, replicate 1): -67 mg/dL
- ΔGlucose ([1]; 3 h post s.c. dose, replicate 2): -79 mg/dL
- ΔGlucose ([1]; 3 h post s.c. dose, replicate 3): -1 mg/dL
- ΔGlucose ([1]; 3 h post s.c. dose, replicate 4): 32 mg/dL
- ΔGlucose ([1]; 3 h post s.c. dose, replicate 5): 97 mg/dL
- ΔGlucose ([1]; 3 h post s.c. dose, replicate 6): -58 mg/dL
- ΔGlucose ([1]; 3 h post s.c. dose, replicate 7): 20 mg/dL
- ΔGlucose ([1]; 3 h post s.c. dose, replicate 8): -73 mg/dL
- ΔGlucose ([1]; 3 h post s.c. dose, replicate 9): 97 mg/dL
- ΔGlucose ([1]; 3 h post s.c. dose, replicate 10): -61 mg/dL
- ΔGlucose ([1]; 3 h post s.c. dose, replicate 11): -233 mg/dL
- ΔGlucose ([1]; 3 h post s.c. dose, replicate 12): -9 mg/dL
- ΔGlucose ([1]; 3 h post s.c. dose, replicate 13): -76 mg/dL
- ΔGlucose ([1]; 3 h post s.c. dose, replicate 14): -2 mg/dL
- ΔGlucose ([1]; 3 h post s.c. dose, replicate 15): -89 mg/dL
- ΔGlucose ([1]; 3 h post s.c. dose, replicate 16): 57 mg/dL
- ΔGlucose ([1]; 3 h post s.c. dose, replicate 17): -188 mg/dL
- ΔGlucose ([1]; 3 h post s.c. dose, replicate 18): -49 mg/dL
- ΔGlucose ([1]; 3 h post s.c. dose, replicate 19): -86 mg/dL
- ΔGlucose ([1]; 4 h post s.c. dose, replicate 1): -114 mg/dL
- ΔGlucose ([1]; 4 h post s.c. dose, replicate 2): -145 mg/dL
- ΔGlucose ([1]; 4 h post s.c. dose, replicate 3): -76 mg/dL
- ΔGlucose ([1]; 4 h post s.c. dose, replicate 4): 21 mg/dL
- ΔGlucose ([1]; 4 h post s.c. dose, replicate 5): 89 mg/dL
- ΔGlucose ([1]; 4 h post s.c. dose, replicate 6): -90 mg/dL
- ΔGlucose ([1]; 4 h post s.c. dose, replicate 7): -30 mg/dL
- ΔGlucose ([1]; 4 h post s.c. dose, replicate 8): -110 mg/dL
- ΔGlucose ([1]; 4 h post s.c. dose, replicate 9): 88 mg/dL
- ΔGlucose ([1]; 4 h post s.c. dose, replicate 10): -83 mg/dL
- ΔGlucose ([1]; 4 h post s.c. dose, replicate 11): -283 mg/dL
- ΔGlucose ([1]; 4 h post s.c. dose, replicate 12): -105 mg/dL
- ΔGlucose ([1]; 4 h post s.c. dose, replicate 13): -142 mg/dL
- ΔGlucose ([1]; 4 h post s.c. dose, replicate 14): -49 mg/dL
- ΔGlucose ([1]; 4 h post s.c. dose, replicate 15): -147 mg/dL
- ΔGlucose ([1]; 4 h post s.c. dose, replicate 16): 24 mg/dL
- ΔGlucose ([1]; 4 h post s.c. dose, replicate 17): -217 mg/dL
- ΔGlucose ([1]; 4 h post s.c. dose, replicate 19): -118 mg/dL
- ΔGlucose ([1]; 5 h post s.c. dose, replicate 1): -180 mg/dL
- ΔGlucose ([1]; 5 h post s.c. dose, replicate 2): -224 mg/dL
- ΔGlucose ([1]; 5 h post s.c. dose, replicate 3): -181 mg/dL
- ΔGlucose ([1]; 5 h post s.c. dose, replicate 4): 9 mg/dL
- ΔGlucose ([1]; 5 h post s.c. dose, replicate 5): 29 mg/dL
- ΔGlucose ([1]; 5 h post s.c. dose, replicate 6): -129 mg/dL
- ΔGlucose ([1]; 5 h post s.c. dose, replicate 7): -47 mg/dL
- ΔGlucose ([1]; 5 h post s.c. dose, replicate 8): -151 mg/dL
- ΔGlucose ([1]; […] post s.c. dose, replicate 4): 27 mg/dL
- ΔGlucose ([1]; […] post s.c. dose, replicate 12): -48 mg/dL

Substance: IGF-1: insulin-like growth factor 1
- EC50 (SAOS2/B10 cells; geometric mean of all independent titrations, EdU incorporation, four-parameter fit, read-out: Cell Proliferation Assay Total Ave EC50): 0.149 nM
- EC50 (SAOS2/B10 cells; titration 2, read-out: Cell Proliferation Assay EC50-2): 0.397 nM
- EC50 (SAOS2/B10 cells; titration 3, read-out: Cell Proliferation Assay EC50-3): 0.154 nM
- EC50 (SAOS2/B10 cells; titration 4, read-out: Cell Proliferation Assay EC50-4): 0.0819 nM
- EC50 (SAOS2/B10 cells; titration 5, read-out: Cell Proliferation Assay EC50-5): 0.103 nM
- EC50 (SAOS2/B10 cells; titration 6, read-out: Cell Proliferation Assay EC50-6): 0.0688 nM
- EC50 (SAOS2/B10 cells; titration 7, read-out: Cell Proliferation Assay EC50-7): 0.0568 nM
- EC50 (SAOS2/B10 cells; titration 8, read-out: Cell Proliferation Assay EC50-8): 0.842 nM
- EC50 (SAOS2/B10 cells; titration 9, read-out: Cell Proliferation Assay EC50-9): 0.438 nM
- EC50 (SAOS2/B10 cells; titration 10, read-out: Cell Proliferation Assay EC50-10): 0.153 nM
